Data from patent publication US20160184322A1 (priority 2013, published 2016).
Like-named read-outs stand apart in the source and are kept apart here.

What was measured:
[1] = tested on: rats that have suffered a concussion; assay: Morris Water Maze latency to platform in mTBI (concussion) model (FIG. 8); format: in vivo, rat; conditions: vs vehicle-injured rats
severe TBI patients = conditions: six months; cited from earlier work
glutathione reductase [2] = assay: Glutathione reductase assay in rat model of mTBI (three repeated impacts); format: in vivo, Sprague Dawley rats; conditions: 16 mg/kg intraperitoneal 15 minutes after last impact; tissue 24 hours after drug; one-way ANOVA p=0.675
Source text: Glutathione reductase assay was used to measure the antioxidant capacity of PRV-001. Glutathione reductase (GR) is an enzyme which catalyzes the reduction of glutathione (GSSR) to reduced glutathione (GSH). GSH is an important intracellular antioxidant that reacts with oxygen free radicals which are harmful to the cell. High GSH to GSSR ratio is important to cellular survival and GR catalyzes the reduction, therefore becoming an important indicator of antioxidant capacity.
Sprague Dawley rats were obtained from Charles River Laboratories and subjected to three repeated impacts spaced 20 minutes apart. Prior to surgery, animals were anesthetized via inhalation with an initial induction with 5% isofluorane with oxygen at a rate of […] a Matrix 3000 Isofluorane Vaporizer (Midmark, Versailles, Ohio). […] The animal's scalp was shaved and cleaned with a 70% isopropanol solution and 10% betadine solution (Med-Vet International, Mettawa, Ill.). During the surgery, anesthesia was maintained at 2.5% isofluorane with oxygen at a rate of 500-1000 mL/min. The animal's head was then secured in a stereotaxic apparatus (David Kopf Instruments, Tujanga, Calif.) and a medial incision was performed and the scalp pulled back with bulldogs clips over the right frontal and parietal bone. […]

[3] = tested on: moderate to severe TBI patients; conditions: cited from earlier work
SH-SY5Y cells [4] = assay: Lactate dehydrogenase release after oxygen and glucose deprivation (OGD); format: cell-based; conditions: for most effective concentrations to attenuate OGD-induced LDH release: both the 0 and 24 hour post-OGD time points
rodents following injury = conditions: cited from earlier work; for most beneficial concentration for reducing edema, inflammation, oxidative stress and cell death within the penumbral region: IP, moderate to severe TBI model, 72 hours following injury
[5] = males; cited from earlier work
SH-SY5Y cells [6] = assay: LDH release after t-BOOH-induced oxidative stress; format: cell-based; conditions: 25 μM t-BOOH 6 hours, 24 hours pre-treatment 1-80 μM; for LDH release following exposure to oxidative stress, group differences: ANOVA p=0.214
rats suffering from TBI = conditions: cited from earlier work; for brain water content (measure of edema): 72 hours post-injury, ent-Prog 16 mg/kg
[7] = molecular target: T1, classical progesterone receptor (PR) (Homo sapiens, UniProt P06401); conditions: cited from earlier work
T1 sequence (P06401 1-933): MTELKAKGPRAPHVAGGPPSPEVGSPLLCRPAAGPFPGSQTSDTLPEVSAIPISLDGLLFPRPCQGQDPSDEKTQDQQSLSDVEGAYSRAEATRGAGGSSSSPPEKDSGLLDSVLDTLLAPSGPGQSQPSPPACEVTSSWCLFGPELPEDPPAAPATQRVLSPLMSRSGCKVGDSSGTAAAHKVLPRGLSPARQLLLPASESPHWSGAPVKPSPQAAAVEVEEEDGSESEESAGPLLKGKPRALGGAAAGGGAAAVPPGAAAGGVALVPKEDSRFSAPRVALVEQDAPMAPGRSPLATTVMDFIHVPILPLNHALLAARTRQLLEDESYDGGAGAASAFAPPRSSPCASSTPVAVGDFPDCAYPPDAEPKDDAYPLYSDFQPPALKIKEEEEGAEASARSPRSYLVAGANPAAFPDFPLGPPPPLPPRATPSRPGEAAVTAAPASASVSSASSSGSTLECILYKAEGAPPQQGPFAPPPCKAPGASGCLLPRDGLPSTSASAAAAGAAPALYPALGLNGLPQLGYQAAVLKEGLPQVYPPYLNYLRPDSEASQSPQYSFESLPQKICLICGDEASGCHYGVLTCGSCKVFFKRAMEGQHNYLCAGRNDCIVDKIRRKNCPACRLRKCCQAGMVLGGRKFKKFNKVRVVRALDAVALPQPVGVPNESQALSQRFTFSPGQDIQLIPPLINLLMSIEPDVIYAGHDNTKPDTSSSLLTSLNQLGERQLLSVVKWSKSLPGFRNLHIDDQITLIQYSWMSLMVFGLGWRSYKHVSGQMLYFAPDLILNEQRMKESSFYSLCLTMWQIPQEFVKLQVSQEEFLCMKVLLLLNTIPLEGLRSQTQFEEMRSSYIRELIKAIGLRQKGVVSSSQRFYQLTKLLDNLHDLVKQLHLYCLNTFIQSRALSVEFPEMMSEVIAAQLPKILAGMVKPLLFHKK

glutathione reductase [8] = conditions: 72 hours post-injury, compared to all other groups, p<0.01; cited from earlier work

SMILES: CC(=O)[C@H]1CC[C@H]2[C@@H]3CCC4=CC(=O)CC[C@]4(C)[C@H]3CC[C@]12C [Prog, progesterone]
- latency to platform (Morris Water Maze) ([1]; post-acutely (15 minutes post)): decreases latency to platform
- latency to platform (Morris Water Maze) ([1]; prophylactically (15 minutes prior)): decreases latency to platform
- neurological outcomes long-term (severe TBI patients): better neurological outcomes
- glutathione reductase activity (Δ Absorbance 340 nm/min), difference between groups (glutathione reductase [2]): failed to reveal a significant difference
- 30 days post-injury outcomes (Glasgow Outcome Scale-Extended and Disability Rating Scale) ([3]; moderate TBI patients): better outcomes
- reduction in mortality ([3]; moderate to severe TBI patients, 72 hours of continuous intravenous Prog): 50%
- 30 days post-injury outcomes (Glasgow Outcome Scale-Extended and Disability Rating Scale) ([3]; patients with severe brain injuries): little measurable difference
- LDH release compared to other treated groups (SH-SY5Y cells [4]): significant reduction
- promoting cellular survival following oxygen and glucose deprivation, PRV-001 compared with progesterone (SH-SY5Y cells [4]): equally effective
- LDH release compared to other treated groups (SH-SY5Y cells [4]; 0 h post-OGD, 1 μM progesterone vs 80 uM progesterone): significant reduction
- LDH release compared to other treated groups (SH-SY5Y cells [4]; 0 h post-OGD, 10 μM progesterone vs 80 μM progesterone): significant reduction
- LDH release compared to control cells that did not undergo OGD (SH-SY5Y cells [4]; 0 h post-OGD, 20 μM and 80 μM progesterone): significantly higher
- LDH release compared to other treated groups (SH-SY5Y cells [4]; 0 h post-OGD, 20 μM progesterone vs 80 μM progesterone): significant reduction
- LDH release compared to control cells not exposed to OGD (SH-SY5Y cells [4]; 0 h post-OGD, 1, 5, 10 and 40 μM progesterone): not significantly different
- LDH release compared to untreated cells exposed to OGD (SH-SY5Y cells [4]; 0 h post-OGD, all progesterone concentrations except 80 μM): significant reduction
- LDH release compared to control cells not exposed to OGD (SH-SY5Y cells [4]; 24 hours post-OGD, 1 μM and 40 μM progesterone): increased
- LDH release compared to other treated groups (SH-SY5Y cells [4]; 24 hours post-OGD, 10 μM progesterone vs 40 μM progesterone): significant reduction
- LDH release compared to untreated cells exposed to OGD (SH-SY5Y cells [4]; 24 hours post-OGD, 40 μM progesterone): except for those treated with 40 μM progesterone
- LDH release compared to other treated groups (SH-SY5Y cells [4]; 24 hours post-OGD, 80 μM progesterone vs 40 μM progesterone): significant reduction
- LDH release compared to control cells not exposed to OGD (SH-SY5Y cells [4]; 24 hours post-OGD, 5, 10, 20 and 80 μM progesterone): not significantly different
- LDH release compared to untreated cells exposed to OGD (SH-SY5Y cells [4]; 24 hours post-OGD, all progesterone groups except 40 μM): significant reduction
- most effective concentrations to attenuate OGD-induced LDH release (SH-SY5Y cells [4]): 5 µM and 10 µM
- most beneficial concentration for reducing edema, inflammation, oxidative stress and cell death within the penumbral region (rodents following injury): 16 mg/kg
- edema (rodents following injury; both rodent sexes following injury): effectively attenuates
- inflammatory factors (TNF-a and IL-10) (rodents following injury; following injury): inhibiting
- presence of factors of cell death (caspase-3) and gliosis (GFAP) (rodents following injury; following injury): decreased
- Neurological Severity Score (motor and cognitive functioning) (rodents following injury; rats following injury): significant improvements
- conversion of testosterone to dihydrotestosterone [5]: inhibits
- size of reproductive organs [5]: reduces
- spermatogenesis [5]: suppresses
- oxidative stress-induced cellular damage and death (LDH release), trend (SH-SY5Y cells [6]): trend towards amelioration
- LDH release following exposure to oxidative stress, group differences (SH-SY5Y cells [6]): significant group differences were not observed
- brain water content (measure of edema) (rats suffering from TBI): normalizes brain water content

SMILES: CC(=O)[C@H]1CC[C@H]2[C@@H]3CC[C@H]4C[C@H](O)CC[C@]4(C)[C@H]3CC[C@]12C [allopregnanolone]
- presence of factors of cell death (caspase-3) and gliosis (GFAP) (rodents following injury; following injury): decreased
- brain water content (measure of edema) (rats suffering from TBI): normalizes brain water content

SMILES: CC(=O)[C@@H]1CC[C@@H]2[C@H]3CCC4=CC(=O)CC[C@@]4(C)[C@@H]3CC[C@]21C [ent-Prog, ent-progesterone]
- glutathione reductase activity (Δ Absorbance 340 nm/min), difference between groups (glutathione reductase [2]): failed to reveal a significant difference
- activation of the classical progesterone receptor (PR) [7]: does not activate
- LDH release compared to control cells that did not undergo OGD (SH-SY5Y cells [4]): significantly higher
- LDH release compared to other treated groups (SH-SY5Y cells [4]): significant reduction
- LDH release compared to untreated cells exposed to OGD (SH-SY5Y cells [4]): significant reduction
- promoting cellular survival following oxygen and glucose deprivation, PRV-001 compared with progesterone (SH-SY5Y cells [4]): equally effective
- most effective concentrations to attenuate OGD-induced LDH release (SH-SY5Y cells [4]): 5 µM and 10 µM
- most beneficial concentration for reducing edema, inflammation, oxidative stress and cell death within the penumbral region (rodents following injury): 16 mg/kg
- oxidative stress-induced cellular damage and death (LDH release), trend (SH-SY5Y cells [6]): trend towards amelioration
- LDH release following exposure to oxidative stress, group differences (SH-SY5Y cells [6]): significant group differences were not observed
- brain water content (measure of edema) (rats suffering from TBI): normalizes brain water content
- reduction of moderate to severe brain injury-induced edema, compared with Prog (rats suffering from TBI; moderate to severe TBI): equal efficacy to Prog
- anti-oxidant activity of glutathione reductase (glutathione reductase [8]): significantly increases
